Values quoted from earlier work in US20220000833A1, “COMPOSITIONS AND METHODS FOR TREATING O[…] APNEA” (THERAPIX BIOSCIENCES LTD., priority 2018, published 2022).

Key:
patients = details: more than 40 years of clinical research, around 6000 patients, 300-1200 mg a day up to two months

CCCCCc1cc(O)c2c(c1)OC(C)(C)[C@@H]1CCC(C)=C[C@@H]21 [Dronabinol, (−)-Trans-Δ9-tetrahydrocannabinol]
hypothesized lethal dose in humans (humans; based on rat studies): 30 mg/kg | dose at which serious Dronabinol-associated adverse events in humans have been reported (humans; humans): 0.4 mg/kg | estimated lethal dose in humans (humans; intravenous): 30 mg/kg

CCCCCCCCCCCCCCCC(=O)NCCO [PEA, N-(2-hydroxyethyl)hexadecanamide]
safety / side effects in clinical research (patients): no side effects has ever been reported
